In ChEMBL document CHEMBL5550154, “Novel biaryloxazolidinone derivatives with broad-spectrum antibacterial activity, favorable drug-like profiles and in vivo efficacy against linezolid-resistant Staphylococcusaureus” (Eur J Med Chem, 2024):
Converted amounts (≈) assume the structure as drawn.

Tests used:
Staphylococcus aureus [1] = assay: Antibacterial activity against Staphylococcus aureus ATCC29213 assessed as inhibition of bacterial growth incubated for 16 to 20 hrs by CLSI based broth liquid microdilution method; format: functional; details: time 16-20 hrs
Staphylococcus aureus [2] = assay: Antibacterial activity against methicillin-resistant Staphylococcus aureus assessed as inhibition of bacterial growth incubated for 16 to 20 hrs by CLSI based broth liquid microdilution method; format: functional; details: time 16-20 hrs
Staphylococcus aureus [3] = assay: Antibacterial activity against methicillin-sensitive Staphylococcus aureus assessed as inhibition of bacterial growth incubated for 16 to 20 hrs by CLSI based broth liquid microdilution method; format: functional; details: time 16-20 hrs
Staphylococcus aureus [4] = assay: Antibacterial activity against linezolid-resistant Staphylococcus aureus assessed as inhibition of bacterial growth incubated for 16 to 20 hrs by CLSI based broth liquid microdilution method; format: functional; details: time 16-20 hrs
Enterococcus faecalis = assay: Antibacterial activity against linezolid-resistant Enterococcus faecalis assessed as inhibition of bacterial growth incubated for 16 to 20 hrs by CLSI based broth liquid microdilution method; format: functional; details: time 16-20 hrs
[5] = Solubility of compound at pH 2; format: physicochemical; details: buffer
[6] = Solubility of compound at pH 7.4; format: physicochemical; details: buffer
[7] = Apparent permeability across apical to basolateral side in human Caco-2 cells; format: ADME, cell-based
[8] = Efflux ratio of apparent permeability across […] side in human Caco-2 cells; format: ADME, cell-based
[9] = Aqueous solubility of compound at pH 2 by LC-MS/MS analysis; format: physicochemical; details: buffer
[10] = Aqueous solubility of compound at pH 7.4 by LC-MS/MS analysis; format: physicochemical; details: buffer
[11] = AUC (0 to t) in Sprague-Dawley rat at 1 mg/kg, iv measured upto 24 hrs by LC-MS analysis; format: ADME, organism-based; details: in vivo
[12] = Elimination half life in Sprague-Dawley rat at 1 mg/kg, iv measured upto 24 hrs by LC-MS analysis; format: ADME, organism-based; details: in vivo, read-out: beta t1/2 (converted)
[13] = Clearance in Sprague-Dawley rat at 1 mg/kg, iv measured upto 24 hrs by LC-MS analysis; format: ADME, organism-based; details: in vivo
[14] = Apparent volume of distribution in Sprague-Dawley rat at 1 mg/kg, iv measured upto 24 hrs by LC-MS analysis; format: ADME, organism-based; details: in vivo, read-out: Vz
[15] = Elimination half life in Sprague-Dawley rat at 10 mg/kg, IG measured upto 24 hrs by LC-MS analysis; format: ADME, organism-based; details: in vivo, po, read-out: beta t1/2 (converted)
[16] = Tmax in Sprague-Dawley rat at 10 mg/kg, IG measured upto 24 hrs by LC-MS analysis; format: ADME, organism-based; details: in vivo, po
[17] = Cmax in Sprague-Dawley rat at 10 mg/kg, IG measured upto 24 hrs by LC-MS analysis; format: ADME, organism-based; details: in vivo, po
[18] = AUC (0 to t) in Sprague-Dawley rat at 10 mg/kg, IG measured upto 24 hrs by LC-MS analysis; format: ADME, organism-based; details: in vivo, po
[19] = Bioavailability in Sprague-Dawley rat at 10 mg/kg, IG measured upto 24 hrs by LC-MS analysis; format: ADME, organism-based; details: in vivo, po

Row | SMILES | MIC (Staphylococcus aureus [1]) | MIC (Staphylococcus aureus [2]) | MIC (Staphylococcus aureus [3]) | MIC (Staphylococcus aureus [4]) | MIC (Enterococcus faecalis) | also measured
1 | O=C1O[C@@H](CF)CN1c1ccc(-c2ccc(/C=N/N3CCCCC3)nc2)c(F)c1 | 0.25 µg/mL (≈ 0.624 µM) | 0.5 µg/mL (≈ 1.25 µM) | 0.25 µg/mL (≈ 0.624 µM) | 0.5 µg/mL (≈ 1.25 µM) | > 16 µg/mL | –
2 | CC(C)(C)C(=O)NC[C@H]1CN(c2ccc(-c3ccc(/C=N/N4CCCCC4)nc3)c(F)c2)C(=O)O1 | 4 µg/mL (≈ 8.31 µM) | 4 µg/mL (≈ 8.31 µM) | 4 µg/mL (≈ 8.31 µM) | > 16 µg/mL | > 16 µg/mL | –
3 | Cc1cccc(N/N=C/c2ccc(-c3ccc(N4C[C@H](CO)OC4=O)cc3F)cn2)n1 | 0.5 µg/mL (≈ 1.19 µM) | 0.5 µg/mL (≈ 1.19 µM) | 0.25 µg/mL (≈ 0.593 µM) | 0.5 µg/mL (≈ 1.19 µM) | 1 µg/mL (≈ 2.37 µM) | –
4 | NC[C@H]1CN(c2ccc(-c3ccc(/C=N/N4CCCCC4)nc3)c(F)c2)C(=O)O1 | 8 µg/mL (≈ 20.1 µM) | 16 µg/mL (≈ 40.3 µM) | 8 µg/mL (≈ 20.1 µM) | 32 µg/mL (≈ 80.5 µM) | 32 µg/mL (≈ 80.5 µM) | –
5 | CS(=O)(=O)OC[C@H]1CN(c2ccc(-c3ccc(/C=N/N4CCCCC4)nc3)c(F)c2)C(=O)O1 | 0.015 µg/mL (≈ 0.0315 µM) | 0.008 µg/mL (≈ 0.0168 µM) | 0.008 µg/mL (≈ 0.0168 µM) | > 16 µg/mL | 1 µg/mL (≈ 2.1 µM) | –
6 | O=C1O[C@@H](CNS(=O)(=O)C2CC2)CN1c1ccc(-c2ccc(/C=N/N3CCCCC3)nc2)c(F)c1 | 0.25 µg/mL (≈ 0.498 µM) | 0.25 µg/mL (≈ 0.498 µM) | 0.25 µg/mL (≈ 0.498 µM) | > 16 µg/mL | > 16 µg/mL | –
7 | O=C1O[C@@H](CO)CN1c1ccc(-c2ccc(/C=N/Nc3ccc(Cl)cn3)nc2)c(F)c1 | 0.5 µg/mL (≈ 1.13 µM) | 0.5 µg/mL (≈ 1.13 µM) | 0.5 µg/mL (≈ 1.13 µM) | 0.5 µg/mL (≈ 1.13 µM) | 8 µg/mL (≈ 18.1 µM) | –
8 | COC[C@H]1CN(c2ccc(-c3ccc(/C=N/N4CCCCC4)nc3)c(F)c2)C(=O)O1 | > 16 µg/mL | – | > 16 µg/mL | – | > 16 µg/mL | –
9 | CC(C)S(=O)(=O)NC[C@H]1CN(c2ccc(-c3ccc(/C=N/N4CCCCC4)nc3)c(F)c2)C(=O)O1 | 4 µg/mL (≈ 7.94 µM) | 4 µg/mL (≈ 7.94 µM) | 2 µg/mL (≈ 3.97 µM) | > 64 µg/mL | > 64 µg/mL | –
10 | O=C1O[C@@H](CO)CN1c1ccc(-c2ccc(/C=N/NC3=NCCN3)nc2)c(F)c1 | 0.5 µg/mL (≈ 1.26 µM) | 0.5 µg/mL (≈ 1.26 µM) | 0.25 µg/mL (≈ 0.628 µM) | 0.5 µg/mL (≈ 1.26 µM) | 2 µg/mL (≈ 5.02 µM) | –
11 | O=C1O[C@@H](CO)CN1c1ccc(-c2ccc(/C=N/Nc3ccc(Cl)cc3)nc2)c(F)c1 | 0.5 µg/mL (≈ 1.13 µM) | 0.5 µg/mL (≈ 1.13 µM) | 0.25 µg/mL (≈ 0.567 µM) | 0.5 µg/mL (≈ 1.13 µM) | 32 µg/mL (≈ 72.6 µM) | –
12 | NC(=S)N/N=C/c1ccc(-c2ccc(N3C[C@H](CO)OC3=O)cc2F)cn1 | 0.125 µg/mL (≈ 0.321 µM) | 0.125 µg/mL (≈ 0.321 µM) | 0.125 µg/mL (≈ 0.321 µM) | 0.25 µg/mL (≈ 0.642 µM) | 1 µg/mL (≈ 2.57 µM) | –
13 | O=C1O[C@@H](CO)CN1c1ccc(-c2ccc(/C=N/Nc3ccncn3)nc2)c(F)c1 | 1 µg/mL (≈ 2.45 µM) | 1 µg/mL (≈ 2.45 µM) | 1 µg/mL (≈ 2.45 µM) | 1 µg/mL (≈ 2.45 µM) | 64 µg/mL (≈ 157 µM) | –
14 | O=C1O[C@@H](CO)CN1c1ccc(-c2ccc(/C=N/Nc3ncccn3)nc2)c(F)c1 | 1 µg/mL (≈ 2.45 µM) | 1 µg/mL (≈ 2.45 µM) | 0.5 µg/mL (≈ 1.22 µM) | 1 µg/mL (≈ 2.45 µM) | 4 µg/mL (≈ 9.79 µM) | –
15 | CN1CCN(/N=C/c2ccc(-c3ccc(N4C[C@H](CO)OC4=O)cc3F)cn2)CC1 | 0.125 µg/mL (≈ 0.302 µM) | 0.125 µg/mL (≈ 0.302 µM) | 0.125 µg/mL (≈ 0.302 µM) | 0.125 µg/mL (≈ 0.302 µM) | 0.5 µg/mL (≈ 1.21 µM) | –
16 | CC(=O)NC[C@H]1CN(c2ccc(-c3ccc(/C=N/N4CCS(=O)(=O)CC4)nc3)c(F)c2)C(=O)O1 | 0.125 µg/mL (≈ 0.255 µM) | 0.125 µg/mL (≈ 0.255 µM) | 0.125 µg/mL (≈ 0.255 µM) | 0.125 µg/mL (≈ 0.255 µM) | 0.25 µg/mL (≈ 0.511 µM) | solubility [5]: 70.4 µM (≈ 34.5 µg/mL); solubility [6]: 2.38 µM (≈ 1.17 µg/mL); Papp A→B [7]: 0.27 ×10⁻⁶ cm/s; Ratio [8]: 64; solubility [9]: 70.4 µM (≈ 34.5 µg/mL); solubility [10]: 38 µM (≈ 18.6 µg/mL); AUC(0-t) at 24 h [11]: 1290 ng·h/mL; half-life [12]: 44.4 min; clearance [13]: 12.9 mL/min/kg; Vd [14]: 0.58 L/kg; half-life [15]: 154 min; Tmax [16]: 30 min; Cmax [17]: 140 ng/mL; AUC(0-t) at 24 h [18]: 469 ng·h/mL; bioavailability [19]: 3.6%
17 | O=C1O[C@@H](CO)CN1c1ccc(-c2ccc(/C=N/Nc3ccc(Cl)nn3)nc2)c(F)c1 | 0.5 µg/mL (≈ 1.13 µM) | 0.5 µg/mL (≈ 1.13 µM) | 0.5 µg/mL (≈ 1.13 µM) | 1 µg/mL (≈ 2.26 µM) | 2 µg/mL (≈ 4.52 µM) | –
18 | O=C1O[C@@H](CO)CN1c1ccc(-c2ccc(/C=N/N3CCSCC3)nc2)c(F)c1 | 2 µg/mL (≈ 4.8 µM) | 1 µg/mL (≈ 2.4 µM) | 1 µg/mL (≈ 2.4 µM) | 2 µg/mL (≈ 4.8 µM) | 8 µg/mL (≈ 19.2 µM) | –
19 | CCS(=O)(=O)NC[C@H]1CN(c2ccc(-c3ccc(/C=N/N4CCCCC4)nc3)c(F)c2)C(=O)O1 | 1 µg/mL (≈ 2.04 µM) | 1 µg/mL (≈ 2.04 µM) | 1 µg/mL (≈ 2.04 µM) | > 16 µg/mL | 8 µg/mL (≈ 16.3 µM) | –
20 | Cc1cc(Br)cc(C(=O)N2CCN(/N=C/c3ccc(-c4ccc(N5C[C@H](CO)OC5=O)cc4F)cn3)CC2)c1 | 0.25 µg/mL (≈ 0.419 µM) | 0.25 µg/mL (≈ 0.419 µM) | 0.125 µg/mL (≈ 0.21 µM) | 0.25 µg/mL (≈ 0.419 µM) | 4 µg/mL (≈ 6.71 µM) | –
21 | N=C(N)N/N=C/c1ccc(-c2ccc(N3C[C@H](CO)OC3=O)cc2F)cn1 | 1 µg/mL (≈ 2.69 µM) | 1 µg/mL (≈ 2.69 µM) | 0.5 µg/mL (≈ 1.34 µM) | 1 µg/mL (≈ 2.69 µM) | 2 µg/mL (≈ 5.37 µM) | –
22 | CS(=O)(=O)NC[C@H]1CN(c2ccc(-c3ccc(/C=N/N4CCCCC4)nc3)c(F)c2)C(=O)O1 | 0.06 µg/mL (≈ 0.126 µM) | 0.125 µg/mL (≈ 0.263 µM) | 0.125 µg/mL (≈ 0.263 µM) | > 16 µg/mL | 4 µg/mL (≈ 8.41 µM) | –
23 | CS(=O)(=O)N1CCN(/N=C/c2ccc(-c3ccc(N4C[C@H](CO)OC4=O)cc3F)cn2)CC1 | 0.25 µg/mL (≈ 0.524 µM) | 0.25 µg/mL (≈ 0.524 µM) | 0.125 µg/mL (≈ 0.262 µM) | 0.125 µg/mL (≈ 0.262 µM) | 1 µg/mL (≈ 2.09 µM) | –
